Source: patent US11149033B2, “Heteroaryl compound, enantiomer, diastereomer or pharmaceutically acceptable salt thereof, and antiviral composition containing same as active ingredient” (priority 2016, dated 2021)
Like-named read-outs stand apart in the source and are kept apart here.

How the values were obtained:
B/Florida/04/2006 = assay: Antiviral activity (drug efficacy evaluation by concentration) against B/Florida/04/2006; assay type: cell-based, B type influenza virus
[1] = tested on: A/California/07/2009 (H1N1); assay: Antiviral activity (drug efficacy evaluation by concentration) against A/California/07/2009 (H1N1); assay type: cell-based, A type influenza virus; conditions: Influenza A virus
A/Perth/16/2009 (H3N2) = assay: Antiviral activity (drug efficacy evaluation by concentration) against A/Perth/16/2009 (H3N2); assay type: cell-based, A type influenza virus; conditions: Influenza A virus
[2] = read-out: EC50 B/Florida/04/2006, B/Florida/04/2006
[3] = H1N1, A/California/07/2009 (H1N1), read-out: EC50 A/California/07/2009 (H1N1)
[4] = H3N2, A/Perth/16/2009 (H3N2), read-out: EC50 A/Perth/16/2009 (H3N2)
[5] = CC50 B/Florida/04/2006, cytotoxicity in the B/Florida/04/2006 assay
[6] = CC50, third EC50/CC50 column pair (c7), beside the EC50 of c6

Row | SMILES | EC50 (B/Florida/04/2006; [2]) [µM] | EC50 [1, 3] [µM] | EC50 (A/Perth/16/2009 (H3N2); [4]) [µM] | melting point [°C] | CC50 (in vitro; [5]) [µM] | EC50 (B/Florida/04/2006) [µM] | EC50 ([1]; H1N1, read-out: EC50) [µM] | EC50 (A/Perth/16/2009 (H3N2); H3N2, read-out: EC50) [µM] | CC50 (in vitro; CC50, beside the EC50 of c2) [µM] | CC50 (in vitro; CC50, beside the EC50 of c4) [µM] | CC50 (in vitro; [6]) [µM]
1 | Cc1nn(Cc2nnc(SCc3ccc(-c4ccccc4)cc3)o2)c(C)c1Br [Compound 2, 2-(([1,1′-biphenyl]-4-ylmethyl)thio)-5-((4-bromo-3,5-dimethyl-1H-pyrazol-1-yl)methyl)-1,3,4-oxadiazole] | > 50 | 47.5 | 46.7 | 135.9 | > 50 | – | – | – | – | – | –
2 | Cc1nn(Cc2nnc(SCc3cccc(-c4ccccc4)c3)o2)c(C)c1Br [Compound 6, 2-(([1,1′-biphenyl]-3-ylmethyl)thio)-5-((4-bromo-3,5-dimethyl-1H-pyrazol-1-yl)methyl)-1,3,4-oxadiazole] | 3 | 2.91 | 2.74 | 90.3 | > 50 | – | – | – | – | – | –
3 | Cc1nn(Cc2nnc(SCc3cccc4ccccc34)o2)c(C)c1Br [Compound 8, 2-((4-bromo-3,5-dimethyl-1H-pyrazol-1-yl)methyl)-5-((naphthalen-1-ylmethyl)thio)-1,3,4-oxadiazole] | 7.48 | 6.94 | 10.5 | 112.1 | > 50 | – | – | – | – | – | –
4 | COc1ccccc1CSc1nnc(Cn2nc(C)c(Br)c2C)o1 [Compound 10, 2-((4-bromo-3,5-dimethyl-1H-pyrazol-1-yl)methyl)-5-((2-methoxybenzyl)thio)-1,3,4-oxadiazole] | 15.5 | 16.8 | 18.4 | 87.3 | > 50 | – | – | – | – | – | –
5 | Cc1nn(Cc2nnc([S+]([O-])Cc3ccccc3-c3ccccc3)o2)c(C)c1Br (centres unmarked) [Compound 12, 2-(([1,1′-biphenyl]-2-ylmethyl)sulfinyl)-5-((4-bromo-3,5-dimethyl-1H-pyrazol-1-yl)methyl)-1,3,4-oxadiazole] | 2.61 | 2.51 | 3.26 | 48.2 | 7.81 | – | – | – | – | – | –
6 | CC(=O)c1ccccc1CSc1nnc(Cn2nc(C)c(Br)c2C)o1 [Compound 28, 1-(2-(((5-((4-bromo-3,5-dimethyl-1H-pyrazol-1-yl)methyl)-1,3,4-oxadiazol-2-yl)thio)methyl)phenyl)ethan-1-one] | > 50 | > 50 | > 50 | 63.7 | > 50 | – | – | – | – | – | –
7 | Cc1nn(Cc2nnc(SCc3ccccc3Oc3ccccc3)o2)c(C)c1Br [Compound 29, 2-((4-bromo-3,5-dimethyl-1H-pyrazol-1-yl)methyl)-5-((2-phenoxybenzyl)thio)-1,3,4-oxadiazole] | 1.99 | 1.2 | 1.4 | 92.3 | 5.23 | – | – | – | – | – | –
8 | Cc1ccc(-c2ccccc2CSc2nnc(Cn3nc(C)c(Br)c3C)o2)cc1 [Compound 32, 2-((4-bromo-3,5-dimethyl-1H-pyrazol-1-yl)methyl)-5-(((4′-methyl-[1,1′-biphenyl]-2-yl)methyl)thio)-1,3,4-oxadiazole] | 1.38 | 0.6 | 0.5 | 102.3 | 7.32 | – | – | – | – | – | –
9 | Cc1nn(Cc2nnc(SCc3ccccc3-c3ccc(Cl)cc3)o2)c(C)c1Br [Compound 33, 2-((4-bromo-3,5-dimethyl-1H-pyrazol-1-yl)methyl)-5-(((4′-chloro-[1,1′-biphenyl]-2-yl)methyl)thio)-1,3,4-oxadiazole] | 1.46 | 0.6 | 0.5 | 84.7 | 6.28 | – | – | – | – | – | –
10 | Cc1nn(Cc2nnc(SCc3ccccc3-c3ccsc3)o2)c(C)c1Br [Compound 35, 2-((4-bromo-3,5-dimethyl-1H-pyrazol-1-yl)methyl)-5-((2-(thiophen-3-yl)benzyl)thio)-1,3,4-oxadiazole] | 1.88 | 0.7 | 0.8 | 86.9 | > 50 | – | – | – | – | – | –
11 | COC(=O)c1ccccc1CSc1nnc(Cn2nc(C)c(Br)c2C)o1 [Compound 37, methyl 2-(((5-((4-bromo-3,5-dimethyl-1H-pyrazol-1-yl)methyl)-1,3,4-oxadiazol-2-yl)thio)methyl)benzoate] | > 50 | 37.8 | 41.8 | 123.6 | > 50 | – | – | – | – | – | –
12 | Brc1ccc(-c2nnc(SCc3ccccc3-c3ccccc3)o2)cc1 [Compound 42, 2-(([1,1′-biphenyl]-2-ylmethyl)thio)-5-(4-bromophenyl)-1,3,4-oxadiazole] | 2.92 | 1.62 | 2.33 | 120.5 | 14.8 | – | – | – | – | – | –
13 | Cc1ccccc1CSc1ccc(C(=O)n2nc(C)c(Br)c2C)o1 [Compound 48, (4-bromo-3,5-dimethyl-1H-pyrazol-1-yl)(5-((2-methylbenzyl)thio)furan-2-yl)methanone] | 23.4 | 4.88 | 11.3 | 101.2 | 9.54 | – | – | – | – | – | –
14 | O=C(NCc1nnc(SCc2ccccc2-c2ccccc2)o1)c1ccc(Br)cc1 [Compound 51, N-((5-(([1,1′-biphenyl]-2-ylmethyl)thio)-1,3,4-oxadiazol-2-yl)methyl)-4-bromobenzamide] | 6.02 | 4.01 | 5.04 | 135.4 | 28.6 | – | – | – | – | – | –
15 | Brc1ccc(Nc2nnc(SCc3ccccc3-c3ccccc3)o2)cc1 [Compound 52, 5-(([1,1′-biphenyl]-2-ylmethyl)thio)-N-(4-bromophenyl)-1,3,4-oxadiazol-2-amine] | 16.3 | > 50 | 8.11 | 158.2 | > 50 | – | – | – | – | – | –
16 | Cc1ccccc1Sc1nnc(Cn2nc(C)c(Br)c2C)o1 [Compound 53, 2-((4-bromo-3,5-dimethyl-1H-pyrazol-1-yl)methyl)-5-(o-tolylthio)-1,3,4-oxadiazole] | 8.94 | 0.12 | 8.57 | 103.6 | 7.91 | – | – | – | – | – | –
17 | O=S(=O)(Cc1ccccc1-c1ccccc1)c1nnc(Cc2ccc(Br)cc2)o1 [Compound 60, 2-(([1,1′-biphenyl]-2-ylmethyl)sulfonyl)-5-(4-bromobenzyl)-1,3,4-oxadiazole] | 4.11 | 12.1 | 6.36 | 134.2 | 8.46 | – | – | – | – | – | –
18 | Cc1cc(Br)cc(C)c1Nc1nnc(SCc2ccccc2-c2ccccc2)o1 [Compound 61, 5-(([1,1′-biphenyl]-2-ylmethyl)thio)-N-(4-bromo-2,6-dimethylphenyl)-1,3,4-oxadiazol-2-amine] | 2.3 | 2.3 | 2.61 | 211.2 | 4.02 | – | – | – | – | – | –
19 | [O-][S+](Cc1ccccc1-c1ccccc1)c1nnc(Nc2ccc(Br)cc2)o1 (centres unmarked) [Compound 63, 5-(([1,1′-biphenyl]-2-ylmethyl)sulfinyl)-N-(4-bromophenyl)-1,3,4-oxadiazol-2-amine] | 7.06 | 2.61 | 6.05 | 199 | > 14.6 | – | – | – | – | – | –
20 | O=C(c1ccccc1)c1nnc(Cc2ccc(Br)cc2)o1 [Compound 64, (5-(4-bromobenzyl)-1,3,4-oxadiazol-2-yl)(phenyl)methanone] | 40.5 | 5.97 | > 50 | 139.9 | > 50 | – | – | – | – | – | –
21 | Cc1cc(C)cc(Nc2nnc(SCc3ccccc3-c3ccccc3)o2)c1 [Compound 68, 5-(([1,1′-biphenyl]-2-ylmethyl)thio)-N-(3,5-dimethylphenyl)-1,3,4-oxadiazol-2-amine] | 1.83 | 2.77 | 1.6 | 232.2 | > 50 | – | – | – | – | – | –
22 | c1ccc(Nc2nnc(SCc3ccccc3-c3ccccc3)o2)cc1 [Compound 71, 5-(([1,1′-biphenyl]-2-ylmethyl)thio)-N-phenyl-1,3,4-oxadiazol-2-amine] | 22.8 | 21 | 14.2 | 172.1 | 6.53 | – | – | – | – | – | –
23 | Cc1cccc(C)c1Nc1nnc(C(=O)c2ccccc2)o1 [Compound 76, (5-((2,6-dimethylphenyl)amino)-1,3,4-oxadiazol-2-yl)(phenyl)methanone] | > 50 | 14.1 | 14.1 | 236.1 | > 50 | – | – | – | – | – | –
24 | Cc1cccc(C)c1Nc1nnc(C(O)c2ccc(F)c(Cl)c2)o1 (centres unmarked) [Compound 79, (3-chloro-4-fluorophenyl)(5-((2,6-dimethylphenyl)amino)-1,3,4-oxadiazol-2-yl)methanol] | > 50 | > 50 | > 50 | 185.8 | > 50 | – | – | – | – | – | –
25 | CC(C)c1ccccc1CCc1nnc(Nc2ccc(Br)cc2)o1 [Compound 84, N-(4-bromophenyl)-5-(2-isopropylphenethyl)-1,3,4-oxadiazol-2-amine] | – | – | – | 175.4 | – | > 50 | 34.7 | 41.7 | > 50 | > 50 | > 50
26 | Cc1cccc(C)c1Nc1nnc(CCc2ccccc2C(C)C)o1 [Compound 85, N-(2,6-dimethylphenyl)-5-(2-isopropylphenethyl)-1,3,4-oxadiazol-2-amine] | – | – | – | 234.1 | – | > 50 | > 50 | > 50 | > 50 | > 50 | > 50
